Like-named read-outs stand apart in the source and are kept apart here.

For data set [1], the target named is T1, human mGluR2 (hmGluR2) transiently over-expressed in HEK-293 cells (Homo sapiens, UniProt Q14416).
T1 construct: expressed in transfected cells; host or cells: HEK-293 cells, transient co-transfection by electroporation
As to the kind of experiment: Human mGluR2 negative allosteric modulator evaluation using Ca++ functional assay (agonist and NAM activity). Format: cell-based. Here is the method:
Human mGluR2 Negative Allosteric Modulator Evaluation Using Ca^++ Functional Assay
Compounds of the present invention were tested successively for their agonist and negative allosteric modulator activities on human mGluR2 (hmGluR2) transiently over-expressed in HEK-293 cells. They exert agonist activity if they are able to activate mGluR2 by themselves, i.e., in absence of the endogenous agonist glutamate; and they exert negative allosteric modulator activity if they decrease the action of the endogenous agonist glutamate.
HEK-293 cells were maintained in Modified Eagle's Medium supplemented with 10% Foetal Calf Serum, 1% Penicillin/Streptomycin and 1% nonessential amino acids at 37° C./5% CO2.
Cells were plated after transfection onto polyornithine coated, clear bottom, black-walled, 96-well plates and cultured for 24 h.
Receptor activity was detected by changes in intracellular calcium measured using the fluorescent Ca^2+ sensitive dye, Fluo4AM (Molecular Probes).
The day of the assay, medium was aspirated and replaced during 3 hours by medium without serum supplemented with 1% Glutamax, 1% Penicillin/Streptomycin and 1% nonessential amino acids. Then, cells were washed with freshly prepared buffer B (HBSS 1× (PAA), Hepes 20 mM, MgSO4-7H2O 1 mM, Na2CO3 3.3 mM, CaCl2-2H2O 1.3 mM, 0.5% BSA, Probenecid 2.5 mM) and loaded at 37° C./5% CO2 for 1.5 hours with buffer B containing 1 μM Fluo4AM, 0.1 mg/mL Pluronic Acid, 7 μg/mL Glutamate Pyruvate Transaminase and 2 mM sodium pyruvate. Afterwards cells were washed twice with buffer B and 50 μL of this buffer were added to each well.
Agonist and negative allosteric modulator activities of compounds were consecutively evaluated on the same cells plate. […] Then, the cells were stimulated by an EC80 glutamate concentration and fluorescence was recorded for additional 60 s. EC80 glutamate concentration is the concentration giving 80% of the maximal glutamate response. Agonist and/or negative allosteric modulator activity(ies) were evaluated in comparison to basal signal or signal evoked by EC80 glutamate alone, respectively.
For potency determination, a dose-response test was performed using 8 concentrations of each compound of the invention. Dose-response curves were fitted using the sigmoidal dose-response (variable slope) analysis in GraphPad Prism program (Graph Pad Inc) and EC50 of agonist/IC50 of negative allosteric modulator activity was calculated. Dose-response experiments were all performed in duplicate, two times independently.

[2] abbreviates: hmGluR2 in HEK-293 cells, EC80 glutamate, Fluo4AM calcium readout, read-out: mGluR2 negative allosteric modulator activity IC50.

T1 sequence (Q14416 19-872): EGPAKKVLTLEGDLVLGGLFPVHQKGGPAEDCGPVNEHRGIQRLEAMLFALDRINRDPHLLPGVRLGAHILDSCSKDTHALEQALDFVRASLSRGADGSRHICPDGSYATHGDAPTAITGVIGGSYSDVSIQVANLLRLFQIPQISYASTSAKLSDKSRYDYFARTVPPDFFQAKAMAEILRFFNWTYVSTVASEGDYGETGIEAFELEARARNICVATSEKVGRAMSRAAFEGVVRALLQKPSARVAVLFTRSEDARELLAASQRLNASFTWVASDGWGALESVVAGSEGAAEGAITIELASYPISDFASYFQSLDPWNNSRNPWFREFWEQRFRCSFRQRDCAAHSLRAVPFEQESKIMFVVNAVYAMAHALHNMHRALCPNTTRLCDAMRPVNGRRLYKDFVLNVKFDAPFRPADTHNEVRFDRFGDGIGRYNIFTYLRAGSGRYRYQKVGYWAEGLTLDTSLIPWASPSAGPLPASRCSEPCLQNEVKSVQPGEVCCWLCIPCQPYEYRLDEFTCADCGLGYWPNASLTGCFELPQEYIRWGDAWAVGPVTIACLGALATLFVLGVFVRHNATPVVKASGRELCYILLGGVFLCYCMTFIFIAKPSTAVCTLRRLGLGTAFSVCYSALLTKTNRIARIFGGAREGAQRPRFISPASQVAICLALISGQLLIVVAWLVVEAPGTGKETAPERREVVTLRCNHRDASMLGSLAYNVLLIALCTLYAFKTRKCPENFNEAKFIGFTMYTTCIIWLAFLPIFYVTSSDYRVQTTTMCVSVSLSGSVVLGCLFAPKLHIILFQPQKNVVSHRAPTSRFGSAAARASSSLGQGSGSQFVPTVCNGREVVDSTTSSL

As a reminder, the IC50 is the point on the concentration scale where inhibition reaches its midpoint. The term melting point denotes the temperature of the solid-liquid transition. As for `Cn1c(=O)c2ccc(-c3ncco3)cc2n2nc(-c3ccccc3)cc12` [Example 20, 4-Methyl-8-oxazol-2-yl-2-phenyl-4H-pyrazolo[1,5-a]quinazolin-5-one], the melting point fell in the range of 228 to 231 °C. Besides, the IC50 in data set [1] (setting [2]) is below 1000 nM.
The compound `Cn1c(=O)c2ccc(-c3cnco3)cc2n2nc(-c3ccccc3)cc12` [Example 21, 4-Methyl-8-oxazol-5-yl-2-phenyl-4H-pyrazolo[1,5-a]quinazolin-5-one] came in with a melting point of 222 to 225 °C. Moreover, in data set [1] (setting [2]), the IC50 was below 1000 nM.
As for `Cc1cc(N)ncc1-c1ccc2c(=O)n(C)c3cc(-c4ccccc4)nn3c2c1.Cl` [Example 24, 8-(6-Amino-4-methyl-pyridin-3-yl)-4-methyl-2-phenyl-4H-pyrazolo[1,5-a]quinazolin-5-one], the melting point is 235 to 240 °C. Besides, in data set [1] (setting [2]), the IC50 is below 1000 nM.
`Cc1nc(N)ccc1-c1ccc2c(=O)n(C)c3cc(-c4ccccc4)nn3c2c1.Cl` [Example 25, 8-(6-Amino-2-methyl-pyridin-3-yl)-4-methyl-2-phenyl-4H-pyrazolo[1,5-a]quinazolin-5-one] showed a melting point of 218 to 220 °C. For the same compound, the IC50 in data set [1] (setting [2]) is below 1000 nM.
`Cc1cc(-c2ccc3c(=O)n(C)c4cc(-c5ccccc5)nn4c3c2)cnc1N.Cl` [Example 26, 8-(6-Amino-5-methyl-pyridin-3-yl)-4-methyl-2-phenyl-4H-pyrazolo[1,5-a]quinazolin-5-one] had a melting point of 226 to 227 °C. Moreover, in data set [1] (setting [2]), the IC50 is below 1000 nM.
For `CCc1nc(N)ccc1-c1ccc2c(=O)n(C)c3cc(-c4ccccc4)nn3c2c1.Cl` [Example 27, 8-(6-Amino-2-ethyl-pyridin-3-yl)-4-methyl-2-phenyl-4H-pyrazolo[1,5-a]quinazolin-5-one], in that order: 239 to 240 °C and below 1000 nM.
For `Cl.Cn1c(=O)c2ccc(-c3ccc(N)nn3)cc2n2nc(-c3ccccc3)cc12` [Example 29, 8-(6-Amino-pyridazin-3-yl)-4-methyl-2-phenyl-4H-pyrazolo[1,5-a]quinazolin-5-one], in that order: above 250 °C and below 1000 nM.
The matching figures for `Cl.Cn1c(=O)c2ccc(-c3cnc(N)cn3)cc2n2nc(-c3ccccc3)cc12` [Example 30, 8-(5-Amino-pyrazin-2-yl)-4-methyl-2-phenyl-4H-pyrazolo[1,5-a]quinazolin-5-one]: 192 to 193 °C and below 1000 nM.
`Cl.Cn1c(=O)c2ccc(-c3cnc(N)nc3)cc2n2nc(-c3ccccc3)cc12` [Example 31, 8-(2-Amino-pyrimidin-5-yl)-4-methyl-2-phenyl-4H-pyrazolo[1,5-a]quinazolin-5-one] gave a melting point above 250 °C. The IC50 in data set [1] (setting [2]) is below 1000 nM.
For `Cc1nc(N)cnc1-c1ccc2c(=O)n(C)c3cc(-c4ccccc4)nn3c2c1.Cl` [Example 32, 8-(5-Amino-3-methyl-pyrazin-2-yl)-4-methyl-2-phenyl-4H-pyrazolo[1,5-a]quinazolin-5-one], in that order: 188 to 189 °C and below 1000 nM.
The matching figures for `Cn1c(=O)c2ccc(-c3cccc(C#N)c3)cc2n2nc(-c3ccccc3)cc12` [Example 35, 3-(4-Methyl-5-oxo-2-phenyl-4,5-dihydro-pyrazolo[1,5-a]quinazolin-8-yl)-benzonitrile]: above 250 °C and below 1000 nM.
For `Cc1cc(-c2ccc3c(=O)n(C)c4cc(-c5ccccc5)nn4c3c2)cc(C)n1.Cl` [Example 37, 8-(2,6-Dimethyl-pyridin-4-yl)-4-methyl-2-phenyl-4H-pyrazolo[1,5-a]quinazolin-5-one], in that order: above 250 °C and below 1000 nM.
Consider `CN(C)S(=O)(=O)c1cccc(-c2ccc3c(=O)n(C)c4cc(-c5ccccc5)nn4c3c2)c1` [Example 38, N,N-Dimethyl-3-(4-methyl-5-oxo-2-phenyl-4,5-dihydro-pyrazolo[1,5-a]quinazolin-8-yl)-benzenesulfonamide], for which the melting point is 202 to 204 °C. In addition, the 50% inhibitory concentration (IC50) in data set [1] (N-methylated compounds, statement in description, read-out: IC50 for mGluR2) is below 30 nM. The IC50 in data set [1] (setting [2]) was below 1000 nM.
`CCn1c(=O)c2ccc(-c3cccc(S(=O)(=O)N(C)C)c3)cc2n2nc(-c3ccccc3)cc12` [Example 39, N,N-Dimethyl-3-(4-Ethyl-5-oxo-2-phenyl-4,5-dihydro-pyrazolo[1,5-a]quinazolin-8-yl)-benzenesulfonamide] showed a melting point of 197 to 198 °C. Also, the IC50 in data set [1] (setting [2]) was below 1000 nM.
As for `CCCn1c(=O)c2ccc(-c3cccc(S(=O)(=O)N(C)C)c3)cc2n2nc(-c3ccccc3)cc12` [Example 40, N,N-Dimethyl-3-(4-propyl-5-oxo-2-phenyl-4,5-dihydro-pyrazolo[1,5-a]quinazolin-8-yl)-benzenesulfonamide], the melting point was 112 to 116 °C. The IC50 in data set [1] (setting [2]) is below 1000 nM.
The matching figures for `CN(C)S(=O)(=O)c1cccc(-c2ccc3c(=O)n(CC4CC4)c4cc(-c5ccccc5)nn4c3c2)c1` [Example 42, 3-(4-Cyclopropylmethyl-5-oxo-2-phenyl-4,5-dihydro-pyrazolo[1,5-a]quinazolin-8-yl)-N,N-dimethyl-benzenesulfonamide]: 115 to 119 °C and below 1000 nM.
The matching figures for `CCn1c(=O)c2ccc(-c3ccc(N)nc3)cc2n2nc(-c3ccccc3)cc12.Cl` [Example 43, 8-(6-Amino-pyridin-3-yl)-4-ethyl-2-phenyl-4H-pyrazolo[1,5-a]quinazolin-5-one]: 207 to 208 °C and below 1000 nM.
The matching figures for `CCCn1c(=O)c2ccc(-c3ccc(N)nc3)cc2n2nc(-c3ccccc3)cc12.Cl` [Example 44, 8-(6-Amino-pyridin-3-yl)-2-phenyl-4-propyl-4H-pyrazolo[1,5-a]quinazolin-5-one]: above 250 °C and below 1000 nM.
`Cl.Nc1ccc(-c2ccc3c(=O)n(CC(F)(F)F)c4cc(-c5ccccc5)nn4c3c2)cn1` [Example 45, 8-(6-Amino-pyridin-3-yl)-2-phenyl-4-(2,2,2-trifluoro-ethyl)-4H-pyrazolo[1,5-a]quinazolin-5-one] came in with a melting point of 227 to 230 °C. Besides, the IC50 in data set [1] (setting [2]) was below 1000 nM.
In turn, `Cl.Nc1ccc(-c2ccc3c(=O)n(CC(F)F)c4cc(-c5ccccc5)nn4c3c2)cn1` [Example 46, 8-(6-Amino-pyridin-3-yl)-4-(2,2-difluoro-ethyl)-2-phenyl-4H-pyrazolo[1,5-a]quinazolin-5-one] showed a melting point above 250 °C. The IC50 in data set [1] (setting [2]) is below 1000 nM.
Turning to `CC(C)n1c(=O)c2ccc(-c3ccc(N)nc3)cc2n2nc(-c3ccccc3)cc12.Cl` [Example 47, 8-(6-Amino-pyridin-3-yl)-4-isopropyl-2-phenyl-4H-pyrazolo[1,5-a]quinazolin-5-one], the melting point was in the range of 214 to 216 °C. In addition, the IC50 in data set [1] (setting [2]) is below 1000 nM.
For `Cl.Nc1ccc(-c2ccc3c(=O)n(C4CCC4)c4cc(-c5ccccc5)nn4c3c2)cn1` [Example 48, 8-(6-Amino-pyridin-3-yl)-4-cyclobutyl-2-phenyl-4H-pyrazolo[1,5-a]quinazolin-5-one], in that order: 203 to 205 °C and below 1000 nM.
Turning to `CCc1cc2n(C)c(=O)c3ccc(-c4ccc(N)nc4)cc3n2n1.Cl` [Example 49, 8-(6-Amino-pyridin-3-yl)-2-ethyl-4-methyl-4H-pyrazolo[1,5-a]quinazolin-5-one], the melting point is above 250 °C. For the same compound, the IC50 in data set [1] (setting [2]) was below 1000 nM.

The values above are taken from patent US9434734B2, “Substituted pyrazoloquinazolinones and pyrroloquinazolinones as allosteric modulators of group II metabotropic glutamate receptors” (Domain Therapeutics, priority 2012, dated 2016).
